Experiments:
[1] = Acute toxicity (LD50, Litchfield-Wilcoxon test, intraperitoneal); parameters: species or system I.C.R. Swiss albino mice; details: mouse, in vivo, ip, mice, deaths noted 48 hours after treatment
Procedure: A--ACUTE TOXICITY Acute toxicity studies have been made in I.C.R. Swiss albino mice of both sexes of a weight of 30±2 g, kept without food for 24 hours prior to the experiment. Ambient temperature and relative humidity were held constant. The products were administered intraperitoneally, with the number of deaths noted 48 hours from the moment of treatment. Calculation of the lethal dose 50 (LD50) was made by the Litchfield-Wilcoxon test.

I.C.R. Swiss albino mice [2] = test: Chemical analgesia, acetic acid writhing technique; type: in vivo; details: for No. of writhes: 30 min before acetic acid, noted 20 min after, x ± S.E.M.; for analgesic activity compared with dextropropoxyphene (in words): acetic acid writhing, i.p.
Procedure: 2. Chemical analgesia The analgesic effect has been studied in I.C.R. Swiss albino mice, employing the acetic acid writhing technique. Batches of 10 mice were made.
The products studied were administered intraperitoneally, and after 30 minutes the mice were injected intraperitoneally with 0.25 ml of 1% acetic acid. A batch of control animals received only the acetic acid. Note was made of the number of writhes in each mouse 20 minutes following injection of the acetic acid.

I.C.R. Swiss albino mice [3] = test: Thermal analgesia, 55° C. "hot plate" technique; type: in vivo; details: for Jumping time: 30 min before 55° C. hot plate, x ± S.E.M.; for thermal analgesic activity (in words): hot plate, i.p.
Procedure: The thermal analgesic effect has been studied in I.C.R. Swiss albino mice. The 55° C. "hot plate" technique was used. Batches of 10 mice were made. The products in study were administered intraperitoneally and after 30 minutes the mice were placed on the hot plate and note was made, in seconds, of the time it took them to jump. Batches were made of control animals injected only with distilled water.

[4] = 30 mg/kg i.p., control 122.1 ± 9.15
[5] = 25 mg/kg i.p., control 30.9 ± 5.016
[6] = 25 mg/kg i.p., control 109.9 ± 6.362
[7] = 50 mg/kg i.p., control 48.8 ± 5.033

CN1CCC2(C)CC1Cc1sc3ccccc3c12 (racemic) [Product I, 2,5-dimethyl-benzo[b]thiene[3,2-f]morphan]
LD50 at 48 h [1]: 90.8 mg/kg
No. of writhes (I.C.R. Swiss albino mice [2]; [4]): 44.3 ± 6.14
analgesic activity compared with dextropropoxyphene (in words) (I.C.R. Swiss albino mice [2]): has analgesic activity, but of lesser intensity than that of dextropropoxyphene
Jumping time (I.C.R. Swiss albino mice [3]; [5]): 48.9 ± 8.956 s
thermal analgesic activity (in words) (I.C.R. Swiss albino mice [3]): lacks any thermal analgesic activity

CC1=CCN(C)C(Cc2cc3ccccc3s2)C1 (centres unmarked) [Product II, 2-(2-benzo[b]thienylmethyl)-1,4-dimethyl-1,2,3,6-tetrahydropyridine]
LD50 at 48 h [1]: 916 mg/kg
No. of writhes (I.C.R. Swiss albino mice [2]; [6]): 41.2 ± 6.024
analgesic activity compared with dextropropoxyphene (in words) (I.C.R. Swiss albino mice [2]): not significantly different from that of dextropropoxyphene
Jumping time (I.C.R. Swiss albino mice [3]; [7]): 63 ± 8.368 s
thermal analgesic activity (in words) (I.C.R. Swiss albino mice [3]): lacks any thermal analgesic activity

CCC(=O)O[C@](Cc1ccccc1)(c1ccccc1)[C@H](C)CN(C)C [Dextropropoxyphene, dextropropoxyphene, reference compound]
No. of writhes (I.C.R. Swiss albino mice [2]; [6]): 27.8 ± 8.365
No. of writhes (I.C.R. Swiss albino mice [2]; [4]): 24 ± 6.03
Jumping time (I.C.R. Swiss albino mice [3]; [5]): 70.8 ± 13.592 s
Jumping time (I.C.R. Swiss albino mice [3]; [7]): 91.3 ± 7.894 s

— patent US4178450A, “2,5-Dimethyl-benzo(b) thiene (3,2-f) morphan and precursor thereof” (priority 1977, dated 1979)
